Article PMC10820264, “Combining Experimental and Computational Methods to Produce Conjugates of Anticholinesterase and Antioxidant Pharmacophores with Linker Chemistries Affecting Biological Activities Related to Treatment of Alzheimer’s Disease” (Molecules, 2024)
Several values for one entry are separate records, joined by “and”; a condition that tells them apart may be missing. Identical values can stand only once.

Assays:
[1] = molecular target: peripheral anionic site of Electrophorus electricus AChE (EeAChE) (Electrophorus electricus, UniProt O42275); type: binding;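 note: compounds tested at 20 µM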
peripheral anionic site of Electrophorus electricus AChE (EeAChE), sequence (O42275 24-633): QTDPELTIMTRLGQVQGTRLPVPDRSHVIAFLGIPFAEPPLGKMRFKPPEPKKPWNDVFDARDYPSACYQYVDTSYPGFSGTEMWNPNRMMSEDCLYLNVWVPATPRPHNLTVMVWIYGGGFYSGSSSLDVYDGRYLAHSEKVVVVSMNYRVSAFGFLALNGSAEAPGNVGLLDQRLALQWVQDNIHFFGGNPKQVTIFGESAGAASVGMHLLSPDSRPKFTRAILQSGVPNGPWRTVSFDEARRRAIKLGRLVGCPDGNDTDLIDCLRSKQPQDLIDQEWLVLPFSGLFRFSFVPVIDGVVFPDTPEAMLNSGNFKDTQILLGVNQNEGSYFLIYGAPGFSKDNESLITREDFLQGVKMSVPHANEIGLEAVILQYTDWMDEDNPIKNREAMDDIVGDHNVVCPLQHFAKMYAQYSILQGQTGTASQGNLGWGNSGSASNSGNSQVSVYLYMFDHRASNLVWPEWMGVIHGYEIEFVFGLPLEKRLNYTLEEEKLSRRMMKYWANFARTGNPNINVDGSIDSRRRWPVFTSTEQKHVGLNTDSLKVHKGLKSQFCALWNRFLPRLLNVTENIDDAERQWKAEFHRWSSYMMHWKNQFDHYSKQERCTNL

Porcine liver CES = assay: CES inhibition, spectrophotometric, 4-NPA substrate; type: biochemical
Experimental: (§1) Human erythrocyte AChE and equine serum BChE were purchased from Milamed (Perm, Russia). Porcine liver CES, substrates, and reference compounds were from Sigma-Aldrich (St. Louis, MO, USA). The activity of enzymes was measured spectrophotometrically, as described in detail in [72] using ATCh iodide, BTCh iodide, and 4-NPA as substrates for AChE, BChE, and CES, respectively. Experimental conditions: K,Na—phosphate buffer (100 mM), 25 °C, pH 7.5 for AChE and BChE and pH 8.0 for CES assay. Measurements were carried out on a FLUOStar Optima microplate reader (BMG Labtech, Ortenberg, Germany).
Test compounds were dissolved in DMSO; the final concentration of solvent in the incubation mixture was 2% (v/v). […]

equine serum BChE = equine serum BChE (Equus caballus, UniProt P81908); assay: biochemical; type: biochemical
equine serum BChE, sequence (P81908 whole entry): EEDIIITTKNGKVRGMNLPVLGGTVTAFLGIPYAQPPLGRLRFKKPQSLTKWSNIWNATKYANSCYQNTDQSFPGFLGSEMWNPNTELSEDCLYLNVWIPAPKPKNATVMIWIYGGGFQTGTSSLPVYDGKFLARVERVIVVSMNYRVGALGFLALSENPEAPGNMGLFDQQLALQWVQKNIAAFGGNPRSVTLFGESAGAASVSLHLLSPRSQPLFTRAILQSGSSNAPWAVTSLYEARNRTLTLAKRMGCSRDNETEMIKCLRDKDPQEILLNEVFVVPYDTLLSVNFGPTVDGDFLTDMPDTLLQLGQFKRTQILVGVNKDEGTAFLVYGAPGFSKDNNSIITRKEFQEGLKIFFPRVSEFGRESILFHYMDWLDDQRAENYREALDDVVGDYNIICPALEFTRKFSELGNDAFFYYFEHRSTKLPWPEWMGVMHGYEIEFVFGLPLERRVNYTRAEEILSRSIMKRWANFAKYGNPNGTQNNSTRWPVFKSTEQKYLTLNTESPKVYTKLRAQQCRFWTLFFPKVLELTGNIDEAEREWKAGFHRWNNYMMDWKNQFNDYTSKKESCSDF
Experimental: as §1
(§2) Test compounds were dissolved in DMSO; the final concentration of solvent in the incubation mixture was 2% (v/v).

Human erythrocyte AChE = Human erythrocyte AChE (Homo sapiens, UniProt P22303); assay: biochemical; type: biochemical
Human erythrocyte AChE, sequence (P22303 other isoform, or with tags, fused parts or gaps): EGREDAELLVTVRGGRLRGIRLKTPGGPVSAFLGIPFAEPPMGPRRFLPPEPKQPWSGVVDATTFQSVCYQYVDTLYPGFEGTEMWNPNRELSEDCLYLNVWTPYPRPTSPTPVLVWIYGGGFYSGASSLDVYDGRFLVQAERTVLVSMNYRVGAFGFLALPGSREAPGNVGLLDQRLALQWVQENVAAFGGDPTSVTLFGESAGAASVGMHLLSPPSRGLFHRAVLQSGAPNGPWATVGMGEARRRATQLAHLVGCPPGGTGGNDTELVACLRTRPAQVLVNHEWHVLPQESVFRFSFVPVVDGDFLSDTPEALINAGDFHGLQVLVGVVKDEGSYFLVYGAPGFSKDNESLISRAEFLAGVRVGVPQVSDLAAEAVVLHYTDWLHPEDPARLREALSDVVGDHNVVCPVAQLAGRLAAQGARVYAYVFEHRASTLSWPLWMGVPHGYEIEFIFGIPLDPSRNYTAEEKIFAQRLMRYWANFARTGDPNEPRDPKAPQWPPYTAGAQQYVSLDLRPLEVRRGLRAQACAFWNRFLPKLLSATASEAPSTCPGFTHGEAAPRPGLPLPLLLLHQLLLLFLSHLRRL
Experimental: as §1, §2

[2] = Ferric-reducing antioxidant power (FRAP) assay; conditions: Trolox equivalents
[3] = ABTS radical cation scavenging assay; conditions: for ABTS•+-Scavenging Activity TEAC: Trolox equivalents
Aβ42 = Aβ42 (Homo sapiens, UniProt P05067); assay: Inhibition of Aβ42 self-aggregation, thioflavin T fluorescence; type: biochemical; conditions: Aβ42 50 µM, compound 100 µM; read-out: Inhibition of Aβ42 Self-Aggregation
Aβ42, sequence (P05067 672-713): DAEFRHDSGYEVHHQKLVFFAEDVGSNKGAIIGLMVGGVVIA

SMILES	Propidium Displacement [1]	CES % inhibition at 20 μM (Porcine liver CES)	IC50 (equine serum BChE)	IC50 (Human erythrocyte AChE)	Ferric-Reducing Antioxidant Power TE [2]	IC50 [3]	ABTS•+-Scavenging Activity TEAC [3]	inhibition at 100 µM (Aβ42)	time to reach the activity level of Trolox in ABTS radical scavenging ([3]; compound at 20 μM (IC50 of Trolox))
CC(C)(C)c1cc(C=NCCCCNc2c3c(nc4ccccc24)CCC3)cc(C(C)(C)C)c1O [13b, 2,6-Di-tert-butyl-4-{[4-(2,3-dihydro-1H-cyclopenta[b]quinolin-9-ylamino)-butylimino]-methyl}-phenol]	20.0 ± 1.6 ***^,§ %	32.7 ± 1.9%	351 ± 1 nM	1300 ± 70 nM	0.60 ± 0.02	25400 ± 1600 nM	0.78 ± 0.04		
CC(C)(C)c1cc(C=NCCCCCCNc2c3c(nc4ccccc24)CCC3)cc(C(C)(C)C)c1O [13c, 2,6-Di-tert-butyl-4-{[6-(2,3-dihydro-1H-cyclopenta[b]quinolin-9-ylamino)-hexylimino]-methyl}-phenol]	16.5 ± 1.3%	31.3 ± 2.1%	172 ± 17 nM	210 ± 10 nM	0.59 ± 0.01	19400 ± 900 nM	0.98 ± 0.04		
CC(C)(C)c1cc(C=NCCCCCCCCNc2c3c(nc4ccccc24)CCC3)cc(C(C)(C)C)c1O [13d, 2,6-Di-tert-butyl-4-{[8-(2,3-dihydro-1H-cyclopenta[b]quinolin-9-ylamino)-octylimino]-methyl}-phenol]	15.1 ± 0.9%	26.3 ± 1.7%	41.7 ± 0.3 nM	107 ± 9 nM	0.71 ± 0.03	22700 ± 1200 nM	0.85 ± 0.03	49.4 ± 4.3%	
CC(C)(C)c1cc(C=NCCCCNc2c3c(nc4ccccc24)CCCC3)cc(C(C)(C)C)c1O [14b, 2,6-Di-tert-butyl-4-{[4-(1,2,3,4-tetrahydro-acridin-9-ylamino)-butylimino]-methyl}-phenol]	17.6 ± 1.4 *^,§ %	26.6 ± 2.2%	385 ± 31 nM	424 ± 22 nM		19700 ± 900 nM	1.0 and 1.00 ± 0.05		
CC(C)(C)c1cc(C=NCCCCCCNc2c3c(nc4ccccc24)CCCC3)cc(C(C)(C)C)c1O [14c, 2,6-Di-tert-butyl-4-{[6-(1,2,3,4-tetrahydro-acridin-9-ylamino)-hexylimino]-methyl}-phenol]	19.7 ± 1.5 **^,§ %	25.1 ± 1.9%	55 ± 5 nM	71.2 ± 1.2 nM	0.71 ± 0.02	18600 ± 900 nM	1.10 ± 0.05	62.4 ± 4.9%	
CC(C)(C)c1cc(C=NCCCCNc2c3c(nc4ccccc24)CCCCC3)cc(C(C)(C)C)c1O [15b, 2,6-Di-tert-butyl-4-{[4-(7,8,9,10-tetrahydro-6H-cyclohepta[b]quinolin-11-ylamino)-butylimino]-methyl}-phenol]	18.4 ± 1.4 **^,§ %	26.3 ± 0.4%	131 ± 4 nM	524 ± 20 nM	0.46 ± 0.01	22500 ± 1400 nM	0.89 ± 0.04		
CC(C)(C)c1cc(CNCCCCNc2c3c(nc4ccccc24)CCC3)cc(C(C)(C)C)c1O [16b, 2,6-Di-tert-butyl-4-{[4-(2,3-dihydro-1H-cyclopenta[b]quinolin-9-ylamino)-butylamino]-methyl}-phenol]	17.5 ± 1.5 *^,§ %	17.2 ± 3.3%	177 ± 17 nM	912 ± 16 nM	0.44 ± 0.02	23600 ± 1300 nM	0.90 ± 0.04		
CC(C)(C)c1cc(CNCCCCCCNc2c3c(nc4ccccc24)CCC3)cc(C(C)(C)C)c1O [16c, 2,6-Di-tert-butyl-4-{[6-(2,3-dihydro-1H-cyclopenta[b]quinolin-9-ylamino)-hexylamino]-methyl}-phenol]	15.8 ± 1.4%	18.7 ± 0.7%	48.8 ± 0.5 nM	205 ± 12 nM	0.51 ± 0.02	13400 ± 700 nM			less than 1 min
CC(C)(C)c1cc(CNCCCCCCCCNc2c3c(nc4ccccc24)CCC3)cc(C(C)(C)C)c1O [16d, 2,6-Di-tert-butyl-4-{[8-(2,3-dihydro-1H-cyclopenta[b]quinolin-9-ylamino)-octylamino]-methyl}-phenol]	13.9 ± 1.1%	17.2 ± 0.2%	17 ± 1.6 nM	94 ± 6 nM	0.61 ± 0.01	21300 ± 1200 nM	1.00 ± 0.03	54.6 ± 3.9%	
CC(C)(C)c1cc(CNCCNc2c3c(nc4ccccc24)CCCC3)cc(C(C)(C)C)c1O [17a, 2,6-Di-tert-butyl-4-{[2-(1,2,3,4-tetrahydro-acridin-9-ylamino)-ethylamino]-methyl}-phenol]	13.4 ± 1.1%	18.4 ± 1.1%	464 ± 41 nM	2880 ± 190 nM	0.52 ± 0.02	16700 ± 800 nM	1.20 ± 0.05		
